Measurements reported in US20240002547A1, “T[…]-TARGETING CONSTRUCTS AND USES THEREOF” (AEBI LTD., priority 2016, published 2024).
pIC50: −log10 of the molar value. Positions of bridges follow the written chain, without caps; N, C: chain ends. No end group written: not given here.

Columns and labels:
[1] = In vivo stability of fluorescently marked peptide in blood after tail vein injection; conditions: mice
Method: The stability of the fluorescently marked peptide E13.3 alone or bound to 8-armed PEG was evaluated in vivo by injecting the compounds to the tail vein of mice. The blood of the animals was analyzed for the presence of the peptide (fluorescence) at different time intervals. It can be clearly seen from the result presented in FIG. 14 that t0.5 of the free peptide is much shorter (about several minutes) than that of the peptides bound to PEG (t0.5 of about 3.5 hours).

[2] = target: human Epidermal Growth Factor Receptor (EGFR) (Homo sapiens, UniProt P00533); assay: Screening of cyclopeptides binding to human EGFR
Method: Using the technique described in WO 2007/010525, a series of new peptides (cyclopeptides) binding to human Epidermal Growth Factor Receptor (EGFR) were generated and tested. After identification of several potential peptide, a few further cycles of optimization were performed.

human EGFR = target: T1, human EGFR (Homo sapiens, UniProt P00533); assay: EGFR autophosphorylation ELISA in A431 cells; type: cell-based
T1 construct: human EGFR in human epidermoid carcinoma cell line A431; endogenous in cells; host or cells: A431
Method: The effect of several peptides on the phosphorylation levels of human EGFR in human epidermoid carcinoma cell line A431 was assessed by ELISA test. Briefly, exponentially growing A431 cell culture were detaches from the flask with 0.25% trypsin/EDTA solution, and 200 μl of cell suspension were transferred to 96-well plates at the concentration of 2×10^5 cells/ml and grown for about 3 days. Following medium exchange, 50 μl EGF dilutions and EGF+peptides (50 ng/ml and 0.2 mg/ml, respectively) were added. The plate was incubated for 7.5 min at 37° C. EGF-containing medium was removed and the cells were fixed by 150 ul of fixing solution and incubated for 20 min. at room temperature, following which the plate was washed 2 times with triton washing solution. The level of phosphorylates was assessed by incubation with phospho-EGFR (Tyr1045) antibody as a primary antibody and Anti-rabbit IgG as a secondary antibody. […] The normalized percent of inhibition (of the EGFR auto-phosphorylation is presented in FIG. 11 and Table 4. The normalized percent of inhibition is calculated as the fluorescence signal of the test item divided by the fluorescence signal of the control that contains no test item, with the same concentration of EGF.
Efficacy of different concentration of the selected peptide was assessed by ELISA in a similar was as in Example 12. […]

eEF2 = target: T2, eEF2 (Homo sapiens, UniProt P13639); assay: in vitro transcription/translation system (HeLa lysate, 1-Step Human Coupled IVT Kit, pCFE-GFP DNA); type: biochemical; conditions: peptide 5 μM; 4 hr at 30° C.; versus positive control without peptide and non eEF2-binding control peptide
T2 construct: in vitro transcription/translation system using HeLa Lysate system; host or cells: HeLa lysate (1-Step Human Coupled IVT Kit-DNA)
Method: The effect of Tox1 and Tox2 was tested in the in vitro transcription/translation system using HeLa Lysate system 1-Step Human Coupled IVT Kit-DNA (ThermoFisher Scientific). The following peptides were tested: GW (Tox1), DRB RB, TB2 (Tox2), and BW. In addition, a non eEF2-binding control peptide, GR, was also tested.
The IVT Kit components were mixed, and one portion was taken out to serve as a negative control. The rest of the mix was supplemented with pCFE-GFP DNA. This DNA, when transcribed and translated gives a fluorescence protein, GFP. The extent of fluorescence gives a measure of the extent of protein synthesis.
The mix was split into […] aliquots. Each aliquot was supplemented with lml of one concentration of a specific peptide. A positive control was supplemented with lml of PBS. The reaction mixtures were incubated 4 hr at 30° C.
[…] of PBS were added to each reaction mixtures. The mixtures were transferred to a 96 well black ELISA plate, and the fluorescence was measured at ex/em 482/512 nm.

[3] = target: T3, eEF2 (Human; Yeast derived) (Homo sapiens, UniProt P13639); assay: ELISA binding of phage-displayed peptides to eEF2 or BSA; conditions: M13 phages expressing the peptide; read after 1.5 min and 30 min; BSA negative control
T3 construct: host or cells: yeast
Method: Binding of Tox 1 and Tox2 to eEF2 was tested by ELISA using eEF2 or BSA as ligands.
0.25 μg of target proteins, eEF2 (Human; Yeast derived) or BSA (negative control) were applied to several wells of maxisorp plate (NUNC) in 50 μl PBS and incubated over night at 4° C. The solutions were removed, and each well was supplemented with 280 μl blocking solution (BSA 2 mg/ml). The plate was incubated 1 hr at 25° C.
To 1.5 ml tubes 100 μl of blocking solution+10^9 pfu (plaque forming units) of M13 phages that express the following peptides: eEF2-binding: RB, LBR1, TB2 (Tox2), Y02, GW (Tox1), DRB, PY, BW were added. The plate was incubated 1 hr at 25° C. The solution were discarded and the wells were washed 7 times with 280 μl washing solution (Tween 20 0.05%).
Each well was supplemented with 50 μl of HRP/Anti-M13 Monoclonal Conjugate (GE Healthcare) diluted 1:5000. The plate was incubated 1 hr at 25° C. The solutions were discarded and the wells were washed 7 times with 280 μl washing solution (Tween 20 0.05%). Each well was supplemented with 50 μl of TMB (T0440; Sigma).
The plate was photographed using a scanner after incubation time of 1.5 min and 30 min.

human PD-L1 = human PD-L1 (Homo sapiens, UniProt Q9NZQ7); assay: Screening of cyclopeptides binding to human PD-L1
Chain of human PD-L1 (Q9NZQ7 19-290): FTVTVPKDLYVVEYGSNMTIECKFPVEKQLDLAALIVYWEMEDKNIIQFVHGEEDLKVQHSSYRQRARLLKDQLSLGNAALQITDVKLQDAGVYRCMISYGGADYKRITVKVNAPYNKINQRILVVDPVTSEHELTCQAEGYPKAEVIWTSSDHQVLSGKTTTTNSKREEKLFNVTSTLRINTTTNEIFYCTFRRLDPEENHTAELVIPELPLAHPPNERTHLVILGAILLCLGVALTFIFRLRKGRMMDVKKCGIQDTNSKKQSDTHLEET
Method: Using the technique described in WO 2007/010525, a series of new peptides (cyclopeptides) binding to binding to a human PD-L1 were generated and tested. After identification of several potential peptides, a few further cycles of optimization were performed.

A549 = assay: Viability of A549 cells, alamarBlue; type: cell-based, human; conditions: all tested concentrations
Method: (§1) The anti-cancer activity of E13.3 was assessed using several cancer cell lines (A549—human lung carcinoma cell line and FaDu—human pharyngeal carcinoma cell line). The cell cultures were incubated in the presence or absence of E13.3 (at different concentrations) and tested for viability using alamarBlue reagent. The results are presented on FIG. 15.

NCI-H1650 tumor = assay: Accumulation of fluorescein-labelled E13.3-PEG in kidney, liver and tumor of xenograft mice; type: in vivo
Method: E13.3-PEG was labeled with Flourescein and injected IV to Xenograft mice bearing subcutaneous NCI-H1650 tumor (lung cancer). Following anesthesia, kidney, liver and tumor were collected at specific time points and the fluorescence was measured.

FaDu = assay: Viability of FaDu cells, alamarBlue; type: cell-based, human; conditions: all tested concentrations
Method: as §1

A431 cells = assay: Toxicity of PEG constructs on A431 cells, microscope images after 48 hours; type: cell-based, human
Method: (§2) A construct comprising a multi-arm-PEG scaffold bound to E13.3 targeting peptide having the sequence SEQ ID NO: 1 ([…]) and a toxin selected from BIMBH3 (referred also as BIM and having the sequence SEQ ID NO: 5 […]) or a combination of Tox1 and Tox2 was generated. The scaffolds were prepared as described in Example 5 and is denoted as PEG-E13.3-Tox1-Tox2 and PEG-13.3-BIM, accordingly
(§3) A431 cells (human squamous carcinoma express about 100,000 copies of EGFR on each cell) and MCF-7 cells (breast cancer cell expressing about 3,000 copies of EGFR on each cell) were thawed and cultivated to achieve exponentially growing cultures. Cells were collected, counted and seeded at the density of 7,000 cells/well and 5,000 cells/well, respectively, in a 96 well tissue culture plate.
(§4) The plates were incubated until the next day at the following conditions: 37±1° C., humidified, and 5±0.5% CO2/air, to enable cells adherence to the wells.
(§5) The cell viability of A549 cell was tested using Alamar Blue viability assay. At the next day following the seeding, Growth Media was replaced with 200 μl Assay Media that contained 2% FBS and Test Items at different concentrations of the construct (1, 3 and 8 μM), or Vehicle Control (PBS; concentration-0). Plates were incubated at 37±1° C., humidified 5±0.5% CO2/air. […]

MCF-7 cells = assay: Toxicity of PEG constructs on MCF-7 cells, microscope images after 48 hours; type: cell-based, human
Method: as §2, §3, §4, §5

[4] = 1, 3 and 8 μM, 48 hours, images

## CHPGDKQEDPNCLQADK [E13.3]
[1]; free peptide
  t0.5 in blood: about several
[2]
  affinity to the receptor at its binding site: high affinity
Human EGFR; A431, EGF 50 ng/ml, peptide 0.2 mg/ml, 7.5 min at 37° C., phospho-EGFR (Tyr1045)
  Normalized Percent of EGFR autophosphorylation inhibition: 99.4%
Human EGFR; Example 12, read-out: calculated IC50 of EGFR autophosphorylation inhibition
  pIC50: 5.70

## Cys-Arg-Arg-Gly-Ser-Arg-Ala-Ser-Gly-Ala-His-Cys (CRRGSRASGAHC; disulfide 1-12) [Tox2]
eEF2
  GFP fluorescence (extent of protein synthesis): highest effect
[3]
  binding to eEF2 (ELISA signal): strongest effect

## Cys-Ser-Ala-Arg-Trp-Gly-Pro-Thr-Met-Pro-Trp-Cys (CSARWGPTMPWC; disulfide 1-12) [Tox1]
eEF2
  GFP fluorescence (extent of protein synthesis): highest effect

## CysGluGlyLeuProAlaAspTrpAlaAlaAlaCys (CEGLPADWAAAC; also: cyclic, mode not given here) [PD-L1-GR]
Human PD-L1
  affinity to the receptor at its binding site: high affinity

## E13.3-PEG: E13.3 bound to 8 arm PEG Succinimidyl Carboxymethyl Ester, MW 73,000 (Ac-CHPGDKQEDPNCLQADK; not fully specified; cysteine pairing not given here; also: one amine Dde-protected, site not given here)
A549
  viability of cancer cells: successfully reduce the viability
[1]; bound to 8-armed PEG
  t0.5 in blood: about 3.5 hours
NCI-H1650 tumor; 1 hour and 24 hour after IV injection
  interaction with and internalization by cancer cells isolated from tumor: most of the cancer cells interact with E13.3-PEG and internalize the fluorescent peptide
NCI-H1650 tumor; IV, NCI-H1650 xenograft mice
  fluorescence in kidney and liver: fast increase in the fluorescence in kidney and liver with a typical elimination curve afterwards
  fluorescence in tumor (cancer cells): accumulated in the cancer cells
FaDu
  viability of cancer cells: successfully reduce the viability

## PEG-E13.3-Tox1-Tox2: multi-arm-PEG scaffold bound to E13.3 targeting peptide and a combination of Tox1 and Tox2 (peptide 1 Ac-CHPGDKQEDPNCLQADK; peptide 2 CSARWGPTMPWC; peptide 3 CRRGSRASGAHC; not fully specified (bridges); cysteine pairing not given here; also: multi-arm PEG scaffold carrying E13.3, Tox1 and Tox2)
A431 cells; [4]
  effect on cell aggregates / proportion of dead cells: proportion of dead cells increased
A431 cells; images at 48 hours
  potency of cell death compared with the BIM construct: more potent
MCF-7 cells; [4]
  effect on cell aggregates / proportion of dead cells: proportion of dead cells increased
MCF-7 cells; images at 48 hours
  potency of cell death compared with the BIM construct: more potent
